We go through seven molecules from ChEMBL document CHEMBL1155378, “Design, synthesis, and evaluation of indole compounds as novel inhibitors targeting Gp41” (Bioorg Med Chem Lett, 2010).

Molecules are shown by their SMILES. Bounds are passed on as bounds.

A short description of series [1]: Cytotoxicity against human HL2/3 cells after 24 hrs by XTT proliferation assay. Format: cell-based. The settings on record: hl2/3, 24 h.
Series [2] in a line: Inhibition of HIV1 envelope glycoprotein gp41. Also noted: species or system Human immunodeficiency virus 1.
Series [3] deals with Human immunodeficiency virus 1. Briefly: Inhibition of HIV1 envelope glycoprotein gp41 by cell-cell fusion assay.
The nature of series [4]: Displacement of C18-Aib-lucifer yellow from HIV1 envelope glycoprotein gp41 Fe(env2.0)3 by fluorescence assay. Also noted: species or system Human immunodeficiency virus 1.
The nature of series [5]: Inhibition of HIV1 envelope glycoprotein 41-mediated membrane fusion between virus-transfected human HL2/3 cells and human TZM-bl cells after 6 hrs by fluorescence-based cell-cell fusion assay. Also noted: species or system Human immunodeficiency virus 1.

For the molecule `COc1cccc(-n2ccc3ccc(Cc4cccc(C(=O)O)c4)cc32)c1`, the CC50 (commonly the concentration at which the toxic effect on the cells reaches its halfway point) in series [1] is greater than 100 µM.
As to `COc1ccc(S(=O)(=O)O)cc1/N=N/c1c(S(=O)(=O)O)cc2cc(Nc3nc(Nc4ccccc4)nc(Nc4cc(C)c(/N=N/c5cc(S(=O)(=O)O)cc6cc(S(=O)(=O)O)cc(O)c56)cc4OC)n3)ccc2c1O`, the IC50 (as a rule, the concentration that inhibits the measured activity by half) in series [2] stood at 0.62 µM. Moreover, the INH in series [3] turned out to be 4.2 µM.
`O=C(O)c1cccc(Cc2ccc3ccn(-c4cccc(C(=O)O)c4)c3c2)c1`: in series [4], affinity was put at a Ki of 107 µM. The CC50 in series [1] is greater than 400 µM.
In the case of `O=C(O)c1cccc(Cc2ccc(F)cc2)c1`, in series [4], the Ki – broadly, a measure of affinity in units of concentration, obtained from inhibition or displacement – is 548 µM. For the same molecule, in series [5], the IC50 is 560 µM.
In turn, `Cc1ccc(C2=NNC3C=CC4C(C(F)(F)F)=CC(C(F)(F)F)=NC4N23)cc1` (stereo not given) registered an IC50 in series [5] of 18 µM.
Take `COc1ccc(Cn2ccc3ccc(Cc4cccc(C(=O)O)c4)cc32)cc1`: the CC50 in series [1] amounted to 100 µM.
In series [1], `O=C(O)c1cccc(Cc2ccc3ccn(Cn4ccc5ccc(Cc6cccc(C(=O)O)c6)cc54)c3c2)c1` returned a CC50 of 80 µM.
